Laboratory results from patent publication US20240391887A1, “New VASHs inhibitors, conjugates thereof and their uses as drugs or as research tools” (Centre National de Recherche Scientifique (CNRS), priority 2021, published 2024).
Entries after “also recorded” stand apart in the source; their conditions may differ. Like-named read-outs stand apart in the source and are kept apart here.

Assays:
[1] = target: T1, carboxypeptidase A (CPA) (Bos taurus, UniProt P00730); assay: Carboxypeptidase A-dependent tubulin detyrosination in vitro; type: biochemical; settings: concentration not given
T1 sequence (P00730 111-419): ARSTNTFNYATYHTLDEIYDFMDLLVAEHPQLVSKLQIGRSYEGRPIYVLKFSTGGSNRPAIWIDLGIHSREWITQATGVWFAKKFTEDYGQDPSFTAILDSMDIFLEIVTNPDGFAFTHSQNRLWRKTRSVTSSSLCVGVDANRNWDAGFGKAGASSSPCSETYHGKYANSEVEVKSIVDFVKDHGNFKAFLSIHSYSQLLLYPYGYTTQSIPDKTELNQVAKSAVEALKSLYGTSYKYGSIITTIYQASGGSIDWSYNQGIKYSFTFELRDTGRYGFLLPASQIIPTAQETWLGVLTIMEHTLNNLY

[2] = target: VASH2 (Homo sapiens, UniProt Q86V25); assay: In vitro detyrosination assay, VASH2-mediated (immunoblot); type: biochemical; settings: concentration not given
Sequence of VASH2 (Q86V25 whole entry, species assumed): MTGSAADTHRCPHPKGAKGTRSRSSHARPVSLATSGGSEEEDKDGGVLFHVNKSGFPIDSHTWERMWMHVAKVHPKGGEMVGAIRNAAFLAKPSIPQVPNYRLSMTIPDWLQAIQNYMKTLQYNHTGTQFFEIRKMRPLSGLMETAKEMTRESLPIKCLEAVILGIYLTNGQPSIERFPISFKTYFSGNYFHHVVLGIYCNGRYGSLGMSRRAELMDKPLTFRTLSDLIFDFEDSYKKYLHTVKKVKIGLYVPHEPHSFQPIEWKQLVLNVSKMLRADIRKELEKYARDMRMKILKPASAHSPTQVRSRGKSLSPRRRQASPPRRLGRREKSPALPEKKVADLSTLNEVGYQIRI

[3] = target: T2, VASH1 (Homo sapiens, UniProt Q7L8A9); assay: In vitro detyrosination assay using recombinant VASH1 (immunoblot); settings: concentration not given
T2 sequence (Q7L8A9 whole entry): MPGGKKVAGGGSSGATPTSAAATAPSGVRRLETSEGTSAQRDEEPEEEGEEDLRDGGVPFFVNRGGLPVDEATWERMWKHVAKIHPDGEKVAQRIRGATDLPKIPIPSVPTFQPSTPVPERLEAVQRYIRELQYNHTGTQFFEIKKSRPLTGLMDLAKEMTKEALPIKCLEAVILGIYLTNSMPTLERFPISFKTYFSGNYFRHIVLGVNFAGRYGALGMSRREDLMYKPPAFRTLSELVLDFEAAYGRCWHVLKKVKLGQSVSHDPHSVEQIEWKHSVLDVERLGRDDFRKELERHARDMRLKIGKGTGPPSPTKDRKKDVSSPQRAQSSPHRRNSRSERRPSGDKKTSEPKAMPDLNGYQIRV
T2 sequence (Q8N300 whole entry partner): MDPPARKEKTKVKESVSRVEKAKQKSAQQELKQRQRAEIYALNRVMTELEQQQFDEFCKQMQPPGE

[4] = target: T2, VASH1; assay: Standardized in vitro detyrosination ELISA based assay; type: biochemical; parameters: poly-histidine tag; made in house; host or cells: bacteria (IPTG induction); settings: for in vitro VASH inhibition activity / in vitro activity compared with reference compounds: in vitro detyrosination assay; for Fold change/ LV-80: ratio IC50(compound)/IC50(LV80)
Method: Standardized primary ELISA-based in vitro detyrosination assay in a 96-wells format has been developed according to the method disclosed in WO2020/012002. […] Primary (rabbit anti-detyrosinated tubulin) is incubated for 1 hour and after washes, secondary (anti-rabbit) antibody is added to each well. The plate is incubated 1 h at room temperature. Development consists of addition of TMB (3,3′,5,5′-Tetramethylbenzidine) to each well, incubation 30 minute at room temperature. The colour development is stopped by addition of 0.5 M sulfuric acid. OD is measured at 450 nm.
The in vitro inhibition activity of IBMT11 is tested by adding the compound to the reaction medium as described above (see part 2.2) and then detyrosination was analysed by immunoblotting with the indicated antibodies.

[5] = test system: VASH-mediated tubulin detyrosination in human CHL-1 cells; assay: In cellulo taxol-induced tubulin detyrosination assay in CHL-1 cells
[6] = Solubility in water or PBS solution; type: physicochemical; settings: compared with the corresponding base LV-80
[7] = test system: CHL-1 cells; assay: LC/MS bioanalysis of penetration and conversion in human cells; type: in vitro ADME; settings: 25 uM, 1 hour
Method: CHL-1 cells have been treated with 25 uM of LV-104 for 1 hour. Culture supernatant have been collected immediately (initial) and 1 hour (supernatant) after compound addition. Cells have been washed, lysed and processed for LC/MS reading (Cells) to detect LV-104 and its bio converted form IBMT11.
Peptide stability in serum Human serum reaction sample contained 250 μl of heat inactivated Human Serum (Sigma Aldrich) and 750 μL of RPMI Medium 1640 (Sigma Aldrich). The reactions were initiated by addition of 50 μl compound (in mM stock solution in DMSO). Assays were performed in a shaking water bath at 37° C. 100 μl samples were collected at known time intervals and added to 200 μl of acetonitrile 1% % TFA to precipitate serum proteins. Cloudy sample was cooled to 4° C. for 15 min and then submitted to centrifugation for 10 min at 12,000 rpm to pellet the precipitated serum proteins. 150 μl of the clear supernatants were collected and peptides were finally analyzed by RPHPLC and LC-MS.
The bioanalysis of the penetration and the conversion of the compound LV-104 has been achieved using the above described protocol on human cells (see part 2.2). The results are illustrated on FIG. 14.

[8] = test system: VASHs; settings: background statement; read-out: IC50 in cellulo; cited from earlier work
[9] = test system: CHL-1 cells; assay: MTT-based colorimetric cell viability assay; parameters: species or system human; settings: 0.1 μM, 24 hours
Description: We next choose a widely used MTT-based colorimetric assay to assess the potential metabolic toxicity and cell viability alterations in the presence of LV-80. […]

[10] = calculated in vitro IC50, read-out: IC50
[11] = read-out: IC50 on cells, compounds added prior Taxol-treatment, FIG. 12

## O=C(O)CC(Cc1ccccc1)C(=O)O (stereo not drawn) [BzISA, benzylsuccinic acid, reference compound]
[1]
  effect on CPA-dependent detyrosination: completely abolished
[2]
  effect on VASH2-mediated detyrosination in vitro: did not affect
[3]
  effect on VASH1-mediated detyrosination in vitro: did not affect

## CCOC(=O)CCCCNC(=O)[C@H]1O[C@@H]1C(=O)N[C@@H](Cc1ccc(OCC)cc1)C(=O)OCC [IBMT23]
[4]
  in vitro VASH inhibition activity: inactive
[5]; taxol treated CHL-1 cells
  in cellulo activity compared with reference compounds: more potent on cultured cells than LV80; also recorded: as potent in vivo as LV80
  inhibition of tubulin detyrosination in cellulo: excellent

## O=C(O)C(Cc1ccc(O)cc1)NC(=O)C1OC1C(=O)O (stereo not drawn) [SD-139sapo, reference compound]
[4]
  in vitro activity compared with reference compounds: very less potent than LV-80

## O=C([O-])CCC[C@H](NC(=O)[C@H]1O[C@@H]1C(=O)N[C@@H](Cc1ccc(OCc2ccccc2)cc1)C(=O)[O-])C(=O)NCCc1ccccc1.[Na+].[Na+] [IBMT-34]
[6]
  solubility in water or PBS solution: dramatically increased
[4]; [10]
  IC50: 0.3 µM
[4]
  in vitro activity compared with reference compounds: same activity
  Fold change/ LV-80: 1
[5]; taxol treated CHL-1 cells
  in cellulo activity compared with reference compounds: same activity

## CCOC(=O)[C@H](Cc1ccc(OCC)cc1)NC(=O)[C@H]1O[C@@H]1C(=O)N[C@@H](Cc1ccc(OCC)cc1)C(=O)OCC [LV-104]
[4]
  in vitro VASH inhibition activity: did not inhibit
[5]; [11]
  IC50: 0.008 µM
[5]; taxol treated CHL-1 cells
  inhibition of tubulin detyrosination in cellulo: very efficient inhibition
[2]
  effect on VASH2-mediated detyrosination in vitro: did not have any effect
[3]
  effect on VASH1-mediated detyrosination in vitro: did not have any effect
[7]
  conversion of prodrug into IBMT11 inside human cells: total conversion
  detection of parent compound inside cells: undetectable

## CCOc1ccc(C[C@H](NC(=O)[C@H]2O[C@@H]2C(=O)NCCCCC(=O)O)C(=O)O)cc1 [IBMT-26]
[4]; [10]
  IC50: 3.9 µM
[4]
  Fold change/ LV-80: 13

## CCOC(=O)[C@H]1O[C@@H]1C(=O)N[C@@H](Cc1ccc(O)cc1)C(=O)O [Epo-Y, reference compound]
[5]; read-out: IC50 in cellulo, taxol-induced detyrosination assay, FIG. 4F
  IC50: 3 µM
[5]; taxol treated CHL-1 cells
  effect on tubulin acetylation: without affecting
  inhibition of tubulin detyrosination in cellulo: dose-dependently inhibited; also recorded: reduced tubulin detyrosination in a dose-dependent manner
[8]
  IC50: ~15 µM

## CCOC(=O)[C@H](Cc1ccc(OCC)cc1)NC(=O)[C@H]1O[C@@H]1C(=O)OCC [LV-111]
[5]; [11]
  IC50: 0.02 µM
[2]
  effect on VASH2-mediated detyrosination in vitro: did not have any effect
[3]
  effect on VASH1-mediated detyrosination in vitro: did not have any effect

## CC(=O)O[C@H]1C(=O)[C@@]2(C)[C@H]([C@H](OC(=O)c3ccccc3)[C@]3(O)C[C@H](OC(=O)[C@H](O)[C@@H](NC(=O)c4ccccc4)c4ccccc4)C(C)=C1C3(C)C)[C@]1(OC(C)=O)CO[C@@H]1C[C@@H]2O [taxol, paclitaxel]
[9]
  cell viability: significant reduction

## NC(=O)C(CCCC(=O)O)NC(=O)C1OC1C(=O)NC(Cc1ccc(O)cc1)C(=O)O (stereo not drawn) [LV-43]
[5]; taxol treated CHL-1 cells
  in cellulo activity compared with reference compounds: much less efficient than Epo-Y

## CCOC(=O)[C@H](Cc1ccc(OCc2ccccc2)cc1)NC(=O)[C@H]1O[C@@H]1C(=O)N[C@H](CCCC(=O)O)C(=O)NCCc1ccccc1 [IBMT-29]
[4]; [10]
  IC50: 4.2 µM
[4]
  Fold change/ LV-80: 14

## CCOc1ccc(C[C@H](NC(=O)[C@H]2O[C@@H]2C(=O)N[C@H](Cc2ccc(OCC)cc2)C(=O)O)C(=O)O)cc1 [IBMT-11]
[4]; VASH1-mediated tubulin detyrosination, FIG. 13.A, read-out: in vitro IC50
  IC50: 0.6 µM
[4]
  in vitro activity compared with reference compounds: more potently than Epo-Y
  Fold change/ LV-80: 2
[5]; taxol treated CHL-1 cells
  inhibition of tubulin detyrosination in cellulo: weak inhibition activity

## O=C(O)CCC[C@@H](NC(=O)[C@H]1O[C@@H]1C(=O)N[C@@H](Cc1ccc(OCc2ccccc2)cc1)C(=O)O)C(=O)NCCc1ccccc1 [IBMT-29 hydro]
[4]; [10]
  IC50: 0.3 µM
[4]
  Fold change/ LV-80: 1

## O=C(O)[C@H](Cc1ccc(O)cc1)NC(=O)[C@H]1O[C@@H]1C(=O)N[C@@H](Cc1ccc(O)cc1)C(=O)O [LV-59]
[4]; [10]
  IC50: 1.2 µM
[4]
  Fold change/ LV-80: 4

## O=C(O)[C@H](Cc1ccc(OCc2ccccc2)cc1)NC(=O)[C@H]1O[C@@H]1C(=O)N[C@@H](Cc1ccc(OCc2ccccc2)cc1)C(=O)O [Synthé Mix hydro]
[4]; [10]
  IC50: 0.6 µM
[4]
  Fold change/ LV-80: 2

## CCOC(=O)C1OC1C(=O)NC(Cc1ccc(O)cc1)C(=O)OC(C)(C)C (stereo not drawn) [SD-139, reference compound]
[4]
  in vitro activity compared with reference compounds: very less potent than LV-80

## CC(C)(C)ONC(=O)CCC[C@@H](NC(=O)[C@H]1O[C@@H]1C(=O)N[C@@H](Cc1ccc(OCc2ccccc2)cc1)C(=O)O)C(=O)NCCc1ccccc1 [IBMT-31 hydro]
[4]; [10]
  IC50: 3.9 µM
[4]
  Fold change/ LV-80: 13
